Experimental data as given in US12409162B2, “Carbazole derivatives sensitizing cells to anti-cancer agents” (CENTRE NATIONAL DE LA RECHERCHE SCIENTIFIQUE, priority 2019, dated 2025).
Where two headings read alike, the source gives them in different places. Values belong to the molecule of their own block, whether it stands above or below them.

Experiments:
HeLa cells [1] = test: Prestoblue cell viability assay on HeLa cells (compounds alone and with paclitaxel); type: cell-based; settings: for GI50: Homo sapiens, HeLa, 72 h
Description: (§1) Cell viability was analyzed using the colorimetric Prestoblue assay (Invitrogen, #A13262). Cells were seeded in 96 well microplates (Greiner, #655077) at a density of 2,500 cells per well and allowed to adhere for 24 h before being treated for 72 h with either DMSO (0.1% final concentration) or drugs at indicated concentrations. After the 72 h treatment, 10 μL A Prestoblue was added to each well and cells were incubated for another 45 min. The absorbance of each well was measured using FLUOstar Optima microplate reader (Excitation, 544 nm; Emission, 580 nm).
First, the cytotoxicity on HeLa cells of compounds (I-a), (I-c) (I-f), (I-h), (I-e), (I-m), (I-n) and (I-s) was assessed with the above described “prestoblue” assay.
Then, HeLa cells were treated during 72 hours with different concentrations of a mixture of paclitaxel (0.05, 0.1, 0.25, 0.5, 1, 2.5, 5 nM) and compounds (I-a), (I-f), (I-h), (I-e), (I-m), (I-n), (I-c) and (I-s).

HeLa cells [2] = test: FITC Annexin V apoptosis assay by flow cytometry; type: cell-based
Description: Apoptosis assay was performed with FITC Annexin V Apoptosis Detection Kit I (BD Biosciences, #556547) using flow cytometry and analyzed by FCS express software.

HeLa cells [3] = test: Cell cycle distribution by flow cytometry; type: cell-based; settings: for cell cycle effect: HeLa
Description: For flow cytometry analysis, Hela cells were treated with the indicated concentrations of compound (I-a) for 12 hours, 24 hours and 48 hours. Cells were then harvested and washed by centrifugation in PBS. Then, 10^5 cells were fixed in 1 mL of 70% methanol at 4° C. overnight. Following two washes with PBS the cells were incubated with 50 μg·mL^−1 propidium iodide and 0.2 mg·mL^−1 RNase A/PBS for 30 min at 37° C. before analysis. The percentage of cells in the specific cell-cycle phases (G0, G1, S, G2, and M) was determined using an Accuri C6 flow cytometer (Becton Dickinson). The results are expressed as the mean±SD of three separate experiments. The significance was determined by a Student's t-test (*p<0.05, **p<0.01, ***p<0.0001, compared with the control). Flow cytometry analysis was performed using HeLa cells. […] The results are expressed as the mean±SD of three separate experiments. The significance was determined by a Student's t-test (*p<0.05, **p<0.01, ***p<0.0001, compared with the control).

RPE-1 cells = test: Prestoblue viability assay on non-cancerous RPE-1 cells; type: cell-based
Description: RPE-1 cells were incubated for 72 hours with the indicated combinations of compound (I-a)/paclitaxel. The percentage of viable cells was calculated following a Prestoblue assay, as described above. Data are presented as mean±SEM of 3 independent experiments.

HeLa cell tumors = test: HeLa cell xenograft tumor growth in mice; type: in vivo; settings: for weight of treated animals versus vehicle-treated animals: paclitaxel 2 to 8 mg/Kg or (I-a) 15 to 60 mg/Kg i.v. every two days during 10 days
Description: The effects on tumor growth of compound (I-a) and paclitaxel injected separately to the effect of a combined administration of compound (I-a) plus paclitaxel were compared in a tumor mouse model.
A first series of experiments (not shown) assessed that HeLa cell tumors were sensitive to therapeutic doses of paclitaxel. To that aim, mice bearing sizable tumors, formed of HeLa cells that have been xenografted, received intraveinous (i.v.) injections of paclitaxel (from 2 to 8 mg/Kg), every two days during 10 days. In the same experiment, the effect of compound (I-a) (from 15 to 60 mg/Kg, i.v.) injected with the same schedule was analyzed. […] The results confirmed the anti-tumor effect of high paclitaxel concentrations in this model. They also indicate that compound (I-a), when applied alone, has no significant anti-tumor activity, even at high concentrations.
A second experiment was conducted to study of the effect on tumor size of low (2 to 3 mg/Kg) paclitaxel doses in combination with different concentrations of compound (I-a).
Protocol for this combination study: 72 NMRI nude mice (5-week-old females) were injected subcutaneously with 10×10^6 exponentially dividing HeLa cells into the right flank. When tumors have reached a volume of about 200 mm 3 i.e. nine days after cell injection, mice were randomized in 9 groups of 8 mice each and drugs were injected intraveinously every two days. The first group received paclitaxel at 2 mg/kg, the second group received paclitaxel at 3 mg/Kg, the third group received compound (I-a) at 40 mg/Kg, the fourth group received compound (I-a) at 60 mg/Kg, the fifth group received a combination of compound (I-a) (40 mg/Kg) and paclitaxel (2 mg/Kg), the sixth group received a combination of compound (I-a) (40 mg/Kg) and paclitaxel (3 mg/Kg), the seventh group received a combination of compound (I-a) (60 mg/Kg) and paclitaxel (2 mg/Kg), the eight group received a combination of compound (I-a) (60 mg/Kg) and paclitaxel (3 mg/Kg) and the ninth group received the vehicle (14% DMSO, 14% Tween 80 and 72% PBS). Tumor growth was monitored three times per week with a sliding caliper.

HeLa cells [4] = test: Immunofluorescence of microtubules and DNA; type: cell-based
Description: The effect of a compound of formula (I) on cell cycle and mitosis of HeLa cells was analyzed by flow cytometry and immunofluorescence.
For immunofluorescence analysis, cells were grown for 48 hours on glass coverslips placed in 24-wells microplates. When cells reached 70% confluence the medium was replaced with a fresh one supplemented with compound (I-a). After a 5-hour exposure to compound (I-a), cells were fixed and permeabilized with −20° C. absolute methanol for 6 min. After washing and saturation with 3% BSA/PBS, cells were incubated for 45 min at room temperature (RT) with anti-alpha-tubulin antibody (1:4000). Cells were washed twice again and subsequently incubated with Alexa 488 conjugated anti-mouse antibody (1:1000) for 30 min at RT. DNA was stained with 20 μmol·L^−1 Hoechst 33342 and coverslips were mounted on microscopic slides with Mowiol 4-88 (Calbiochem, #475904). Images were captured with a Zeiss AxioimagerM2 microscope equipped with the acquisition software AxioVision and analyzed using the Fiji software.

4T1 cells = test: Prestoblue cell viability assay on murine cancer cells; type: cell-based; settings: mice breast cancer cell line (4T1 cells), 72 h
Description: as §1, with “μL” for “μL A”

[5] = tested on: microtubule dynamics in GFP-EB3 transfected cells; test: Microtubule dynamic instability by time-lapse fluorescence microscopy; type: cell-based; settings: 25 μM
Description: The effect of a high dose (25 μM) of compound (I-a) on microtubule dynamic instability parameters was measured using time-lapse fluorescence microscopy on GFP-EB3 transfected cells (Table 1).

[6] = compound alone, HeLa cells, read-out: GI50 (50% of growth inhibition)
[7] = paclitaxel 5 nM, after 15 hours
[8] = combination study, each compound administered separately (paclitaxel 2 or 3 mg/Kg, (I-a) 40 or 60 mg/Kg)

GI50 (HeLa cells [1]; [6]): 2000 nM
SMILES: Cc1cc(-n2ccc(CO)c2)c(C)c2c1[nH]c1ccc(Cl)cc12 [Compound (I-s)]

GI50 (HeLa cells [1]; [6]): 1060 nM
SMILES: Cc1cc(-n2ccc(C=O)c2)c(C)c2c1[nH]c1ccc(Br)cc12 [Compound (I-h)]

GI50 (HeLa cells [1]; [6]): 16200 nM
SMILES: Cc1cc(-n2cccc2)c(C)c2c1[nH]c1ccc(Br)cc12 [(I-f)]

GI50 (HeLa cells [1]; [6]): 2000 nM
SMILES: Cc1cc(-n2ccc(C=O)c2)c(C)c2c1[nH]c1ccc(Cl)cc12 [(I-c)]

GI50 (HeLa cells [1]; [6]): 14800 nM
SMILES: Cc1cc(-n2cccc2)c(C)c2c1[nH]c1cc(Cl)ccc12 [(I-e)]

GI50 (HeLa cells [1]; 0.1 μM compound (I-h) added to paclitaxel, read-out: GI50 of Paclitaxel): 1.25 nM | GI50 (HeLa cells [1]; 0.2 μM compound (I-h) added to paclitaxel, read-out: GI50 of Paclitaxel): 1.07 nM | GI50 (HeLa cells [1]; 0.4 μM compound (I-h) added to paclitaxel, read-out: GI50 of Paclitaxel): 0.79 nM | GI50 (HeLa cells [1]; 0.8 μM compound (I-e) added to paclitaxel, read-out: GI50 of Paclitaxel): 1.36 nM | GI50 (HeLa cells [1]; 1.2 μM compound (I-c) added to paclitaxel, read-out: GI50 of Paclitaxel): 0.75 nM | GI50 (HeLa cells [1]; 1.2 μM compound (I-s) added to paclitaxel, read-out: GI50 of Paclitaxel): 0.75 nM | GI50 (HeLa cells [1]; 1.5 μM compound (I-e) added to paclitaxel, read-out: GI50 of Paclitaxel): 1.25 nM | GI50 (HeLa cells [1]; 1.5 μM compound (I-f) added to paclitaxel, read-out: GI50 of Paclitaxel): 1.36 nM | GI50 (HeLa cells [1]; 3 μM compound (I-a) added to paclitaxel, read-out: GI50 of Paclitaxel): 1.36 nM | GI50 (HeLa cells [1]; 3 μM compound (I-e) added to paclitaxel, read-out: GI50 of Paclitaxel): 1.2 nM | GI50 (HeLa cells [1]; 3 μM compound (I-f) added to paclitaxel, read-out: GI50 of Paclitaxel): 1.25 nM | GI50 (HeLa cells [1]; 3 μM compound (I-m) added to paclitaxel, read-out: GI50 of Paclitaxel): 1.5 nM | GI50 (HeLa cells [1]; 3 μM compound (I-n) added to paclitaxel, read-out: GI50 of Paclitaxel): 1.5 nM | GI50 (HeLa cells [1]; 6 μM compound (I-a) added to paclitaxel, read-out: GI50 of Paclitaxel): 1.2 nM | GI50 (HeLa cells [1]; 6 μM compound (I-f) added to paclitaxel, read-out: GI50 of Paclitaxel): 0.88 nM | GI50 (HeLa cells [1]; 6 μM compound (I-m) added to paclitaxel, read-out: GI50 of Paclitaxel): 1.5 nM | GI50 (HeLa cells [1]; 6 μM compound (I-n) added to paclitaxel, read-out: GI50 of Paclitaxel): 1.5 nM | GI50 (HeLa cells [1]; 12 μM compound (I-a) added to paclitaxel, read-out: GI50 of Paclitaxel): 0.68 nM | GI50 (HeLa cells [1]; 12 μM compound (I-m) added to paclitaxel, read-out: GI50 of Paclitaxel): 1.25 nM | GI50 (HeLa cells [1]; 12 μM compound (I-n) added to paclitaxel, read-out: GI50 of Paclitaxel): 1.25 nM | GI50 (HeLa cells [1]; paclitaxel alone (0 μM compound added), HeLa cells, read-out: GI50 of Paclitaxel): 1.5 nM | weight of treated animals versus vehicle-treated animals (HeLa cell tumors; first experiment): not significantly different
SMILES: CC(=O)O[C@H]1C(=O)[C@@]2(C)[C@H]([C@H](OC(=O)c3ccccc3)[C@]3(O)C[C@H](OC(=O)[C@H](O)[C@@H](NC(=O)c4ccccc4)c4ccccc4)C(C)=C1C3(C)C)[C@]1(OC(C)=O)CO[C@@H]1C[C@@H]2O [Paclitaxel, paclitaxel]
% of apoptosis (HeLa cells [2]; Paclitaxel 1 nM): 13.00 ± 0.48% | cell population blocked in G2/M phase (HeLa cells [3]; [7]): half of the cell population | cells in apoptosis (HeLa cells [3]; [7]): ~20% | GI50 (RPE-1 cells; Homo sapiens, 72 hours): 7 nM | tumor size (HeLa cell tumors; [8]): no effect | tumor size (HeLa cell tumors; first experiment, paclitaxel 4 and 8 mg/Kg i.v. every two days during 10 days): important reduction of tumor size

GI50 (HeLa cells [1]; [6]): 19400 to 21800 nM | weight of treated animals versus vehicle-treated animals (HeLa cell tumors; first experiment): not significantly different
SMILES: Cc1cc(-n2cccc2)c(C)c2c1[nH]c1ccc(Cl)cc12 [Compound (I-a)]
cytotoxicity of the compound on its own (HeLa cells [1]; 12 μM, HeLa cells): not cytotoxic | chromosome congression in mitotic cells (HeLa cells [4]; 12 μM): chromosome congression defects were visible in several mitotic cells | chromosome congression in mitotic cells (HeLa cells [4]; 25 μM): occurrence of such defects was increased | effect on microtubule network in interphase cells (HeLa cells [4]; 12-25 μM, 5-hour exposure): does not visibly perturb microtubule network | effect on cell apoptosis when combined with paclitaxel (HeLa cells [2]): synergistic effect | cell cycle effect (HeLa cells [3]; compound (I-a) 12 μM): blocked in G2/M phase | cell cycle effect (HeLa cells [3]; compound (I-a) 25 μM): the large majority of the cells is blocked in prometaphase | effect of the combination with paclitaxel on cell viability (4T1 cells): synergistic effect | % time spent growing [5]: 60.40 ± 0.25 % | % time spent in pause [5]: 39.60 ± 0.31 % | Catastrophe frequency (min^−1 ± SE) [5]: 2.74 ± 0.70 min⁻¹ | Growth rate (μm/min ± SE) [5]: 10.20 ± 0.05 μm/min | Catastrophe frequency (μm^−1 ± SE) ([5]; distance-based): 0.46 ± 0.05 *** μm^−1 | toxicity toward non-cancerous cells (RPE-1 cells; 72 hours): does not induce additional toxicity | effect on cell viability in combination with PTX (RPE-1 cells; compound at 25 μM): able to synergistically affect cell viability | tumor size (HeLa cell tumors; [8]): no effect | tumor size (HeLa cell tumors; first experiment, compound (I-a) alone 15 to 60 mg/Kg i.v. every two days): did not induce a significant effect on tumor size
